# Experimental data: patent publication US12540131B2 (Merck Sharp & Dohme LLC, priority 2019, dated 2026)
# Target: GST tagged truncated human mutant G2019S LRRK2 (Homo sapiens (Human), UniProt Q5S007, G2019S)
# Experiment: LRRK2 Km ATP LanthaScreen Assay
# Type: biochemical
# Conditions: G2019S LRRK2, 134 μM ATP (Km ATP), mean values
# In short: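 Enzyme (GST-tagged, truncated) was preincubated with compound for 15 min at RT in 50 mM Tris pH 8.5, 10 mM MgCl2, 0.01% Brij-35, 1 mM EGTA, 2 mM DTT and 0.05 mM orthovanadate. Fluorescein-LRRKtide and 134 μM ATP (Km) were then added for 90 min. EDTA and Tb-anti-pERM antibody stopped the reaction; the TR-FRET 520/495 ratio gave 4-parameter IC50s, reported as mean pIC50.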
# Sequence of GST tagged truncated human mutant G2019S LRRK2 (Q5S007 970-2527 G2019S): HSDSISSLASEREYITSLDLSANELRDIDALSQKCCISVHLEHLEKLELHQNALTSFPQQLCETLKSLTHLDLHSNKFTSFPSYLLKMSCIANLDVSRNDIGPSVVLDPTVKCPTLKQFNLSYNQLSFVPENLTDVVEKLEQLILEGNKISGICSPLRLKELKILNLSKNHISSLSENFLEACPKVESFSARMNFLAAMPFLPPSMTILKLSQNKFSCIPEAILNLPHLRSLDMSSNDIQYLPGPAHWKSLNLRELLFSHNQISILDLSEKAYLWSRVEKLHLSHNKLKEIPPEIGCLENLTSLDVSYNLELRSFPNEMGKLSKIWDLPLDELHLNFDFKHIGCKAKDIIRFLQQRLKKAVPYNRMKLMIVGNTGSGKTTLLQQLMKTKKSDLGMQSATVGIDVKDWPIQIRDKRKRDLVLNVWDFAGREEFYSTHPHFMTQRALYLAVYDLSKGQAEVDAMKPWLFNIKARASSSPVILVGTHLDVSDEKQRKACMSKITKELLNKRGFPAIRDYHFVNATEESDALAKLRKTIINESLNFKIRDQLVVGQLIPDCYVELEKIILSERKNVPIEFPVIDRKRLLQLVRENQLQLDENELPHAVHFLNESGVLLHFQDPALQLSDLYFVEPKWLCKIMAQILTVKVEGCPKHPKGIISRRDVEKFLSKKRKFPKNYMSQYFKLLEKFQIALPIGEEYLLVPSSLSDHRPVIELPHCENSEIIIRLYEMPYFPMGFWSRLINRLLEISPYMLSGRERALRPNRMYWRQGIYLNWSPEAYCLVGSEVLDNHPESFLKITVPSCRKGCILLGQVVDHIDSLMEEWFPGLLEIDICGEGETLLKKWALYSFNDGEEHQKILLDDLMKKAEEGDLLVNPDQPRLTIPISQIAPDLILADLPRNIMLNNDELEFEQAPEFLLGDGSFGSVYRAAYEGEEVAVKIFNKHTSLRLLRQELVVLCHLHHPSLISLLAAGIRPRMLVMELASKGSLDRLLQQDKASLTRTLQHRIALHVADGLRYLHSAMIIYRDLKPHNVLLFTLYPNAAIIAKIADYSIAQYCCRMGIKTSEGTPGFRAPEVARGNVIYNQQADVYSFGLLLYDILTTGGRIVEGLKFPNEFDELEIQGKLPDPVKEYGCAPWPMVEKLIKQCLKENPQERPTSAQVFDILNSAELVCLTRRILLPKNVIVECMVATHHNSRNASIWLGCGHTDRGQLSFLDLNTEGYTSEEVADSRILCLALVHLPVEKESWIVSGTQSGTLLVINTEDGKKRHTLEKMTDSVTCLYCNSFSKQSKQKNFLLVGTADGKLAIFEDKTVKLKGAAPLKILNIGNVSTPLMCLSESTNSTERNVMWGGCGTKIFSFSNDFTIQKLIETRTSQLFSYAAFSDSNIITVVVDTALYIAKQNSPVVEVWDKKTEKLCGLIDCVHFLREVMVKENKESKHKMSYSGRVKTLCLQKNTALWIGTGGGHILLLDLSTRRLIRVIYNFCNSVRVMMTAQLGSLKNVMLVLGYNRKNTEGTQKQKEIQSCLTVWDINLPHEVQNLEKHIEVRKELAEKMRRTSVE
row,Compound,LRRK2 pIC50
1,"O=S1(=O)CC(N2CCC(c3cc4nc(Nc5cnn(CC(F)F)c5Cl)ncc4cc3Cl)CC2)C1 [Ex-4.14, 3-(4-(6-chloro-2-((5-chloro-1-(2,2-difluoroethyl)-1H-pyrazol-4-yl)amino)quinazolin-7-yl)piperidin-1-yl)thietane 1,1-dioxide]",>9.20
2,"Clc1cc2cnc(Nc3cnn(C4CCC4)c3Cl)nc2cc1C1CCN(C2COC2)CC1 [Ex-4.15, 6-chloro-N-(5-chloro-1-cyclobutyl-1H-pyrazol-4-yl)-7-[1-(oxetan-3-yl)piperidin-4-yl]quinazolin-2-amine]",>9.20
3,"Clc1cc2cnc(Nc3cnn(CC4CC4)c3Cl)nc2cc1C1CCN(C2COC2)CC1 [Ex-4.16, 6-chloro-N-[5-chloro-1-(cyclopropylmethyl)-1H-pyrazol-4-yl]-7-[1-(oxetan-3-yl)piperidin-4-yl]quinazolin-2-amine]",>9.20
4,"Clc1cc2cnc(Nc3cnn(C4COC4)c3Cl)nc2cc1C1CCN(C2COC2)CC1 [Ex-4.17, 6-chloro-N-[5-chloro-1-(oxetan-3-yl)-1H-pyrazol-4-yl]-7-[1-(oxetan-3-yl)piperidin-4-yl]quinazolin-2-amine]",>9.20
5,"FC(F)n1cc(Nc2ncc3cc(Cl)c(C4CCN(C5COC5)CC4)cc3n2)cn1 [Ex-4.18, 6-chloro-N-[1-(difluoromethyl)-1H-pyrazol-4-yl]-7-[1-(oxetan-3-yl)piperidin-4-yl]quinazolin-2-amine]",9.16
6,"Clc1cc2cnc(Nc3cnn(CC4CCC4)c3Cl)nc2cc1C1CCN(C2COC2)CC1 [Ex-4.19, 6-chloro-N-[5-chloro-1-(cyclobutylmethyl)-1H-pyrazol-4-yl]-7-[1-(oxetan-3-yl)piperidin-4-yl]quinazolin-2-amine]",9.17
7,"CC1(CN2CCC(c3cc4nc(Nc5cnn(C6CC6)c5Cl)ncc4cc3Cl)CC2)COC1 [Ex-4.20, 6-chloro-N-(5-chloro-1-cyclopropyl-1H-pyrazol-4-yl)-7-{1-[(3-methyloxetan-3-yl)methyl]piperidin-4-yl}quinazolin-2-amine]",8.11
8,"CC1(n2ncc(Nc3ncc4cc(Cl)c(C5(F)CCN(C6COC6)CC5)cc4n3)c2Cl)CC1 [Ex-4.24, 6-chloro-N-[5-chloro-1-(1-methylcyclopropyl)-1H-pyrazol-4-yl]-7-[4-fluoro-1-(oxetan-3-yl)piperidin-4-yl]quinazolin-2-amine]",>9.20
9,"FC1(c2cc3nc(Nc4cnn(C5CC5)c4Cl)ncc3cc2Cl)CCN(C2COC2)CC1 [Ex-4.31, 6-chloro-N-(5-chloro-1-cyclopropyl-1H-pyrazol-4-yl)-7-[4-fluoro-1-(oxetan-3-yl)piperidin-4-yl]quinazolin-2-amine]",8.23
10,"CN1CCC(F)(c2cc3nc(Nc4cnn(C5CC5)c4Cl)ncc3cc2Cl)CC1 [Ex-4.36, 6-chloro-N-(5-chloro-1-cyclopropyl-1H-pyrazol-4-yl)-7-(4-fluoro-1-methylpiperidin-4-yl)quinazolin-2-amine]",8.29
11,"Cc1cc(Nc2ncc3cc(Cl)c(C4CCN(C5COC5)CC4)cc3n2)sn1 [Ex-4.45, 6-chloro-N-(3-methyl-1,2-thiazol-5-yl)-7-[1-(oxetan-3-yl)piperidin-4-yl]quinazolin-2-amine]",>9.20
12,"Cc1c(Nc2ncc3cc(Cl)c(C4CCN(C5COC5)CC4)cc3n2)cnn1CCF [Ex-4.54, 6-chloro-N-[1-(2-fluoroethyl)-5-methyl-1H-pyrazol-4-yl]-7-[1-(oxetan-3-yl)piperidin-4-yl]quinazolin-2-amine]",>9.20
13,"FC(F)Cn1ncc(Nc2ncc3cc(Cl)c(C4CCN(C5COC5)CC4)cc3n2)c1Cl [Ex-4.55, 6-chloro-N-[5-chloro-1-(2,2-difluoroethyl)-1H-pyrazol-4-yl]-7-[1-(oxetan-3-yl)piperidin-4-yl]quinazolin-2-amine]",>9.20
14,"CC1(n2ncc(Nc3ncc4cc(Cl)c(C5CCN(C6COC6)CC5)cc4n3)c2Cl)CC1 [Ex-4.56, 6-chloro-N-[5-chloro-1-(1-methylcyclopropyl)-1H-pyrazol-4-yl]-7-[1-(oxetan-3-yl)piperidin-4-yl]quinazolin-2-amine]",>9.20
15,"[2H]C1(N2CCC(c3cc4nc(Nc5cnn(C6CC6)c5Cl)ncc4cc3Cl)CC2)COC1 [Ex-4.57, 6-chloro-N-(5-chloro-1-cyclopropyl-1H-pyrazol-4-yl)-7-(1-(oxetan-3-yl-3-d)piperidin-4-yl)quinazolin-2-amine]",>9.20
16,"[2H]C1([2H])OC([2H])([2H])C1([2H])N1CCC(c2cc3nc(Nc4cnn(CC(C)(C)O)c4Cl)ncc3cc2Cl)CC1 [Ex-4.58, 1-(5-chloro-4-((6-chloro-7-(1-(oxetan-3-yl-d5)piperidin-4-yl)quinazolin-2-yl)amino)-1H-pyrazol-1-yl)-2-methylpropan-2-ol]",>9.20

row,Compound,LRRK2 pIC50
1,"[2H]C1(N2CCC(c3cc4nc(Nc5cnn(CC(C)(C)O)c5Cl)ncc4cc3Cl)CC2)COC1 [Ex-4.59, 1-(5-chloro-4-((6-chloro-7-(1-(oxetan-3-yl-3-d)piperidin-4-yl)quinazolin-2-yl)amino)-1H-pyrazol-1-yl)-2-methylpropan-2-ol]",>9.20
2,"CN1CCC(c2cc3nc(Nc4cnn(CC(C)(C)O)c4Cl)ncc3cc2Cl)CC1 [Ex-4.72, 1-(5-chloro-4-{[6-chloro-7-(1-methylpiperidin-4-yl)quinazolin-2-yl]amino}-1H-pyrazol-1-yl)-2-methylpropan-2-ol]",8.92
3,"N#CC1(CN2CCC(c3cc4nc(Nc5cnn(C6CC6)c5Cl)ncc4cc3Cl)CC2)CC1 [Ex-4.78, 1-[(4-{6-chloro-2-[(5-chloro-1-cyclopropyl-1H-pyrazol-4-yl)amino]quinazolin-7-yl}piperidin-1-yl)methyl]cyclopropane-1-carbonitrile]",7.95
4,"Cc1cc2cnc(Nc3cnn(CC(C)(C)O)c3Cl)nc2cc1C1CCN(C2COC2)CC1 [Ex-4.80, 1-[5-chloro-4-({6-methyl-7-[1-(oxetan-3-yl)piperidin-4-yl]quinazolin-2-yl}amino)-1H-pyrazol-1-yl]-2-methylpropan-2-ol]",8.87
5,"Cc1cc2cnc(Nc3cnn(C4CC4)c3Cl)nc2cc1C1CCN(C2COC2)CC1 [Ex-4.84, N-(5-chloro-1-cyclopropyl-1H-pyrazol-4-yl)-6-methyl-7-[1-(oxetan-3-yl)piperidin-4-yl]quinazolin-2-amine]",9.01
6,"CC(C)(O)Cn1ncc(Nc2ncc3cc(Cl)c(C4(F)CCN(C5COC5)CC4)cc3n2)c1Cl [Ex-4.86, 1-[5-chloro-4-({6-chloro-7-[4-fluoro-1-(oxetan-3-yl)piperidin-4-yl]quinazolin-2-yl}amino)-1H-pyrazol-1-yl]-2-methylpropan-2-ol]",8.09
7,"Clc1cc2cnc(Nc3cnn(C4CCC4)c3Cl)nc2cc1C1CCNCC1 [Ex-4.89, 6-chloro-N-(5-chloro-1-cyclobutyl-1H-pyrazol-4-yl)-7-(piperidin-4-yl)quinazolin-2-amine]",9.13
8,"Clc1cc2cnc(Nc3cnn(CC4CC4)c3Cl)nc2cc1C1CCNCC1 [Ex-4.90, 6-chloro-N-[5-chloro-1-(cyclopropylmethyl)-1H-pyrazol-4-yl]-7-(piperidin-4-yl)quinazolin-2-amine]",>9.20
9,"FC(F)Cn1ncc(Nc2ncc3cc(Cl)c(C4CCNCC4)cc3n2)c1Cl [Ex-4.93, 6-chloro-N-[5-chloro-1-(2,2-difluoroethyl)-1H-pyrazol-4-yl]-7-(piperidin-4-yl)quinazolin-2-amine]",8.70
10,"CC(C)(O)Cn1ncc(Nc2ncc3cc(Cl)c(C4CCNCC4)cc3n2)c1Cl [Ex-4.94, 1-(5-chloro-4-{[6-chloro-7-(piperidin-4-yl)quinazolin-2-yl]amino}-1H-pyrazol-1-yl)-2-methylpropan-2-ol]",8.46
11,"N#CCCN1CCC(c2cc3nc(Nc4cnn(CC(F)F)c4Cl)ncc3cc2Cl)CC1 [Ex-4.95, 3-[4-(6-chloro-2-{[5-chloro-1-(2,2-difluoroethyl)-1H-pyrazol-4-yl]amino}quinazolin-7-yl)piperidin-1-yl]propanenitrile]",>9.20
12,"Cc1cc(Nc2ncc3cc(Cl)c(C4CCN(C5CS(=O)(=O)C5)CC4)cc3n2)sn1 [Ex-4.96, 3-(4-(6-chloro-2-((3-methylisothiazol-5-yl)amino)quinazolin-7-yl)piperidin-1-yl)thietane 1,1-dioxide]",9.09
13,"CCN1CCC(c2cc3nc(Nc4cnn(CC(C)(C)O)c4Cl)ncc3cc2Cl)CC1 [Ex-4.97, 1-(5-chloro-4-{[6-chloro-7-(1-ethylpiperidin-4-yl)quinazolin-2-yl]amino}-1H-pyrazol-1-yl)-2-methylpropan-2-ol]",8.57
14,"CC1(N2CCC(c3cc4nc(Nc5cnn(CC(F)F)c5Cl)ncc4cc3Cl)CC2)COC1 [Ex-4.98, 6-chloro-N-[5-chloro-1-(2,2-difluoroethyl)-1H-pyrazol-4-yl]-7-[1-(3-methyloxetan-3-yl)piperidin-4-yl]quinazolin-2-amine]",>9.20
15,"Clc1cc2cnc(Nc3cnn(C4CC4)c3Cl)nc2cc1C1CC2CCC(C1)N2C1COC1 (stereo not drawn) [Ex-4.112, cis or trans 6-chloro-N-(5-chloro-1-cyclopropyl-1H-pyrazol-4-yl)-7-(8-(oxetan-3-yl)-8-azabicyclo[3.2.1]octan-3-yl)quinazolin-2-amine]",>9.20
